According to patent publication US4711895A, “4-hydroxy-2-cyclopentenone, process for production thereof, pharmaceutical composition comprising it” (Teijin Limited, priority 1984, dated 1987):
Values after ≈ are worked out from the molar mass of the structure shown. Where two headings read alike, the source gives them in different places. Blank lines part the entries; values can stand above or below the compound they belong to.

Legend:
[1] = system: P388 mouse leukemia cells; assay: Antitumor effect on P388 mouse leukemia tumor in ICR mice; assay type: in vivo; settings: i.p., 5 days
Experimental: Measurement of the antitumor effect on P338 mouse leukemia tumor
1×10^5 P388 mouse leukemia cells were intraperitoneally administered to ICR mice. After the lapse of 24 hours, each of the test compounds shown in Table II was intraperitoneally administered to the mice for 5 days. The periods of survival of these animals were examined and the increase of their life span (ILS%) were determined.

[2] = system: L1210 leukemia cells; assay: Action of inhibiting proliferation of L1210 leukemia cell; assay type: cell-based; settings: RPMI medium, 10% FCS, 37° C., 4 days, trypan blue
Experimental: Measurement of the action of inhibiting Proliferation of L1210 leukemia cell
L1210 leukemia cells were added to an RPMI medium containing 10% FCS (fetal calf serum), and the concentration of the cells was adjusted to […]. Each of the test compounds shown in Table I was dissolved in 99.5% ethanol. Prior to use, the final concentration of the ethanol solution was adjusted to less than 0.1%, and it was added to the culture medium. The culture medium was then maintained at 37° C. in a stationary condition for 4 days. After the cultivation, the number of surviving cells was measured by dyeing with trypan blue. As a control, 0.1% ethanol was used. A dose-reaction curve plotted from the ratios of proliferation against the control, and IC50 was determined.

[3] = Mus musculus, 96 h, read-out: IC50

SMILES: CC(C)=CCCC(C)=CC(O)C1C(=O)C=CC1(O)CCCCOc1ccccc1 (stereo not drawn) [Compound 228, 4-(4-phenoxybutyl)-4-hydroxy-5-(3,7-dimethyl-1-hydroxy-2,6-octadiene)-2-cyclopentenone]
Increase of life span ILS (%) ([1]; 15 mg/kg/day): 4.1% | Survival ([1]; 15 mg/kg/day): 10.2 ± 0.9 days | IC50 [2, 3]: 0.4 µg/mL (≈ 1 µM)

IC50 [2, 3]: 0.035 µg/mL (≈ 0.0847 µM)
SMILES: COC(=O)CCCCC/C=C1\C(=O)C(Cl)=CC1(O)CCC(C)CCCC(C)C (stereo not drawn) [Compound 156, 2-chloro-4-(3,7-dimethyloctyl)-4-hydroxy-5-[(Z)-6-methoxycarbonylhexylidene]-2-cyclopentenone]

SMILES: CCCCCCCCC1(O)C=C(Cl)C(=O)C1=CCCCCCC(=O)OC (stereo not drawn) [Compound 154, 2-chloro-4-hydroxy-5-(6-methoxycarbonylhexylidene)-4-octyl-2-cyclopentenone]
Increase of life span ILS (%) ([1]; 10 mg/kg/day): 7.1% | Survival ([1]; 10 mg/kg/day): 10.5 ± 0.8 days | IC50 [2, 3]: 0.03 µg/mL (≈ 0.0779 µM)

SMILES: O=C1C=CC(O)(CCCCOc2ccccc2)C1=C/C=C/C(O)CCCO (stereo not drawn) [Compound 148]
Increase of life span ILS (%) ([1]; 2.5 mg/kg/day): 15.3% | Survival ([1]; 2.5 mg/kg/day): 11.3 ± 0.5 days | Increase of life span ILS (%) ([1]; 5 mg/kg/day): 32.7% | Survival ([1]; 5 mg/kg/day): 13.0 ± 1.4 days | Increase of life span ILS (%) ([1]; 10 mg/kg/day): 29.6% | Survival ([1]; 10 mg/kg/day): 12.7 ± 0.7 days | IC50 [2]: 1.5 µg/mL (≈ 4.03 µM)

SMILES: COC(=O)CCCCCC=C1C(=O)C(Cl)=CC1(O)CCCc1ccc(OC)c(OC)c1 (stereo not drawn) [Compound 152, 2-chloro-4-hydroxy-4-[3-(3,4-dimethoxyphenyl)propyl]-5-(6-methoxycarbonylhexylidene)-2-cyclopentenone]
Increase of life span ILS (%) ([1]; 10 mg/kg/day): 19.4% | Survival ([1]; 10 mg/kg/day): 11.7 ± 1.1 days | IC50 [2, 3]: 0.06 µg/mL (≈ 0.133 µM)

SMILES: CCCCCCCC[C@@]1(O)C=CC(=O)/C1=C/CCCCCC(=O)OC [Compound 142, (4R)-5-[(E)-6-methoxycarbonylhexylidene]-4-hydroxy-4-octyl-2-cyclopentenone]
Increase of life span ILS (%) ([1]; 5 mg/kg/day): 5.4% | Survival ([1]; 5 mg/kg/day): 10.3 ± 0.5 days | Increase of life span ILS (%) ([1]; 10 mg/kg/day): 15.3% | Survival ([1]; 10 mg/kg/day): 11.3 ± 0.5 days | IC50 [2, 3]: 0.15 µg/mL (≈ 0.428 µM)

SMILES: CCCCCCCC[C@@]1(O)C=CC(=O)/C1=C\CCCCCC(=O)OC [Compound 144, (4R)-5-[(Z)-6-methoxycarbonylhexylidene]-4-hydroxy-4-octyl-2-cyclopentenone]
Increase of life span ILS (%) ([1]; 5 mg/kg/day): 2.9% | Survival ([1]; 5 mg/kg/day): 10.7 ± 0.5 days | Increase of life span ILS (%) ([1]; 10 mg/kg/day): 17.3% | Survival ([1]; 10 mg/kg/day): 12.2 ± 1.2 days | Increase of life span ILS (%) ([1]; 15 mg/kg/day): 12.5% | Survival ([1]; 15 mg/kg/day): 11.7 ± 0.5 days | IC50 [2, 3]: 0.15 µg/mL (≈ 0.428 µM)

IC50 [2, 3]: 0.025 µg/mL (≈ 0.0605 µM)
SMILES: COC(=O)CCCCC/C=C1/C(=O)C(Cl)=CC1(O)CCC(C)CCCC(C)C (stereo not drawn) [Compound 158, 2-chloro-4-(3,7-dimethyloctyl)-4-hydroxy-5-[(E)-6-methoxycarbonylhexylidene]-2-cyclopentenone]

SMILES: COC(=O)CCCCCC(O)C1C(=O)C(Cl)=CC1(O)CCCc1ccc(OC)c(OC)c1 (stereo not drawn) [Compound 226, 2-chloro-4-hydroxy-4-[3-(3,4-dimethoxyphenyl)propyl]-5-(1-hydroxy-6-methoxycarbonylhexyl)-2-cyclopentenone]
Increase of life span ILS (%) ([1]; 5 mg/kg/day): 10.0% | Survival ([1]; 5 mg/kg/day): 11.0 ± 0 days | IC50 [2, 3]: 0.2 µg/mL (≈ 0.426 µM)
